From ChEMBL document CHEMBL1201862, “PubChem BioAssay data set” (2004)
The source made the active and inactive calls.

Assays:
[1] = molecular target: T1, Mannose-6-phosphate isomerase (Homo sapiens, UniProt P34949); test: phosphomannose isomerase inhibition – biochemical, fluorescence intensity, confirmation (AID 1535)
T1 sequence (P34949 whole entry): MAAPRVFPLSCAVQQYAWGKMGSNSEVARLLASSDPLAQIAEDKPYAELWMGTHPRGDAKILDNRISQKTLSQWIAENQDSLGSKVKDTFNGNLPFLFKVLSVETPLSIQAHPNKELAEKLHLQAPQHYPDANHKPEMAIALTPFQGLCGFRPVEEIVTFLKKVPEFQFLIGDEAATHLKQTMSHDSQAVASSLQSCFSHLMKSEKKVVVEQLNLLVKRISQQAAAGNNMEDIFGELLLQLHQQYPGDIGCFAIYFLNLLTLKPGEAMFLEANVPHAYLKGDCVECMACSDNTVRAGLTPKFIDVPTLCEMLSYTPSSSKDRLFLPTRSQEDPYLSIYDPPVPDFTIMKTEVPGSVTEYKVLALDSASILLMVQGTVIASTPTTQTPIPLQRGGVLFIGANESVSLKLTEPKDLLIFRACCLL

[2] = molecular target: Phosphoethanolamine/phosphocholine phosphatase (Homo sapiens, UniProt Q8TCT1); test: SAR assay for compounds that inhibit PHOSPHO1. [Related pubchem assays (depositor defined):AID1545, AID1565, AID1574]
Chain of Phosphoethanolamine/phosphocholine phosphatase (Q8TCT1 whole entry): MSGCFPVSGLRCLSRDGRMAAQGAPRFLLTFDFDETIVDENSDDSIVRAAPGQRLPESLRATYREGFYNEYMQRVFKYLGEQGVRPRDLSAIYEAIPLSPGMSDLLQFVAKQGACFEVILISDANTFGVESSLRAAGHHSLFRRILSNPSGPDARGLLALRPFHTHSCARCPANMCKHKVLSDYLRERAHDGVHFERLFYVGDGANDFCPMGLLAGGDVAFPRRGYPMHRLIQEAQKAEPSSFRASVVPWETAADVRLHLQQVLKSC

[3] = molecular target: Eukaryotic translation initiation factor 4E (Mus musculus, UniProt P63073); test: blockers of eIF4G binding by eIF4E – biochemical, TR-FRET, dose response (AID 855); assay type: functional;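 also: potency for disrupting eIF4E binding to eIF4GI seen as loss of FRET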
Chain of Eukaryotic translation initiation factor 4E (P63073 whole entry): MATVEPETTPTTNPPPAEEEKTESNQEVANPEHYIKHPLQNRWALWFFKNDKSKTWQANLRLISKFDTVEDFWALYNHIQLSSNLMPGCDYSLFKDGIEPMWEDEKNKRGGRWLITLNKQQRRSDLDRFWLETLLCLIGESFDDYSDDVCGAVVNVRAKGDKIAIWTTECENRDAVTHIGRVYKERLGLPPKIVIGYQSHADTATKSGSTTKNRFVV

[4] = molecular target: Phosphomannomutase 2 (Homo sapiens, UniProt O15305); test: Counter screen SAR assay for PMM2 inhibitors via a fluorescence intensity assay. [Related pubchem assays (depositor defined):AID1545, AID1574]
Chain of Phosphomannomutase 2 (O15305 whole entry): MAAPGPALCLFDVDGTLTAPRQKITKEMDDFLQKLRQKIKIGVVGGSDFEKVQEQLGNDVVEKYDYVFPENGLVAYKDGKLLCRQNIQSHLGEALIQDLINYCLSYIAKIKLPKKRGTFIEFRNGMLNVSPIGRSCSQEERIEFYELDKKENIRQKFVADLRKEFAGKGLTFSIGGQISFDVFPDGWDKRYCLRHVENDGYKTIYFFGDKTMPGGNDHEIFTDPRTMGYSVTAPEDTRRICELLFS

[5] = molecular target: Melanin-concentrating hormone receptor 1 (Homo sapiens, UniProt Q99705); test: Late-stage fluorescence-based counterscreen for antagonists of the G-protein coupled receptor 7 (GPR7): cell-based dose response assay to identify antagonists of the melanin-concentrating hormone receptor 1 (MCHR1). [Related pubchem assays (depositor defined):AID1861, AID1880, AID1952, AID2148, AID2251, AID2257, AID485339]; assay type: functional;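 also: stimulated with 30 nM MCH peptide agonist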
Chain of Melanin-concentrating hormone receptor 1 (Q99705 whole entry): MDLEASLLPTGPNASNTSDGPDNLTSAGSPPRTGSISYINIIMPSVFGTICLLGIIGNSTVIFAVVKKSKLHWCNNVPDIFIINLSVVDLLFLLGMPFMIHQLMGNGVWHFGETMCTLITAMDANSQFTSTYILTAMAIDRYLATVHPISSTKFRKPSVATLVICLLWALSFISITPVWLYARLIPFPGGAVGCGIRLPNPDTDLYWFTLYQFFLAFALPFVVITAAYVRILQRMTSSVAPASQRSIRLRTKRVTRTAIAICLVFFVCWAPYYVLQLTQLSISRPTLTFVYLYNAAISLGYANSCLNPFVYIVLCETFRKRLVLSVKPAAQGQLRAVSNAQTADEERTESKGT

[6] = molecular target: T2, Neuropeptides B/W receptor type 1 (Homo sapiens, UniProt P48145); test: human NPBW1 receptor blockade, IC50 – cell-based, fluorescence, dose response, late-stage follow-up (AID 463251); assay type: functional
T2 sequence (P48145 whole entry): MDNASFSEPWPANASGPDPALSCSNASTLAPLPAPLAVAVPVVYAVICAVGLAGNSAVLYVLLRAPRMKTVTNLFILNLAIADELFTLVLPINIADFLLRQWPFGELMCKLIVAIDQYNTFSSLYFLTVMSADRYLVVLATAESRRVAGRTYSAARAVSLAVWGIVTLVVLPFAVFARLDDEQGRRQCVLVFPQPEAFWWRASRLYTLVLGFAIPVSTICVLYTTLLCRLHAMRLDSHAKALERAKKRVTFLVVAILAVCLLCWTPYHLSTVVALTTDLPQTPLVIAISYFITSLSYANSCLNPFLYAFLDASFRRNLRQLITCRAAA

[7] = molecular target: T3, Voltage-gated N-type calcium channel alpha-1B subunit/Amyloid beta A4 precursor protein-binding family A member 1 (Homo sapiens, UniProt Q00975+Q02410); test: disruptors of Mint-PDZ/N-type channel peptide interaction – biochemical, HTRF, set 2, SAR follow-up (AID 434980); assay type: functional
T3 sequence (Q00975 whole entry): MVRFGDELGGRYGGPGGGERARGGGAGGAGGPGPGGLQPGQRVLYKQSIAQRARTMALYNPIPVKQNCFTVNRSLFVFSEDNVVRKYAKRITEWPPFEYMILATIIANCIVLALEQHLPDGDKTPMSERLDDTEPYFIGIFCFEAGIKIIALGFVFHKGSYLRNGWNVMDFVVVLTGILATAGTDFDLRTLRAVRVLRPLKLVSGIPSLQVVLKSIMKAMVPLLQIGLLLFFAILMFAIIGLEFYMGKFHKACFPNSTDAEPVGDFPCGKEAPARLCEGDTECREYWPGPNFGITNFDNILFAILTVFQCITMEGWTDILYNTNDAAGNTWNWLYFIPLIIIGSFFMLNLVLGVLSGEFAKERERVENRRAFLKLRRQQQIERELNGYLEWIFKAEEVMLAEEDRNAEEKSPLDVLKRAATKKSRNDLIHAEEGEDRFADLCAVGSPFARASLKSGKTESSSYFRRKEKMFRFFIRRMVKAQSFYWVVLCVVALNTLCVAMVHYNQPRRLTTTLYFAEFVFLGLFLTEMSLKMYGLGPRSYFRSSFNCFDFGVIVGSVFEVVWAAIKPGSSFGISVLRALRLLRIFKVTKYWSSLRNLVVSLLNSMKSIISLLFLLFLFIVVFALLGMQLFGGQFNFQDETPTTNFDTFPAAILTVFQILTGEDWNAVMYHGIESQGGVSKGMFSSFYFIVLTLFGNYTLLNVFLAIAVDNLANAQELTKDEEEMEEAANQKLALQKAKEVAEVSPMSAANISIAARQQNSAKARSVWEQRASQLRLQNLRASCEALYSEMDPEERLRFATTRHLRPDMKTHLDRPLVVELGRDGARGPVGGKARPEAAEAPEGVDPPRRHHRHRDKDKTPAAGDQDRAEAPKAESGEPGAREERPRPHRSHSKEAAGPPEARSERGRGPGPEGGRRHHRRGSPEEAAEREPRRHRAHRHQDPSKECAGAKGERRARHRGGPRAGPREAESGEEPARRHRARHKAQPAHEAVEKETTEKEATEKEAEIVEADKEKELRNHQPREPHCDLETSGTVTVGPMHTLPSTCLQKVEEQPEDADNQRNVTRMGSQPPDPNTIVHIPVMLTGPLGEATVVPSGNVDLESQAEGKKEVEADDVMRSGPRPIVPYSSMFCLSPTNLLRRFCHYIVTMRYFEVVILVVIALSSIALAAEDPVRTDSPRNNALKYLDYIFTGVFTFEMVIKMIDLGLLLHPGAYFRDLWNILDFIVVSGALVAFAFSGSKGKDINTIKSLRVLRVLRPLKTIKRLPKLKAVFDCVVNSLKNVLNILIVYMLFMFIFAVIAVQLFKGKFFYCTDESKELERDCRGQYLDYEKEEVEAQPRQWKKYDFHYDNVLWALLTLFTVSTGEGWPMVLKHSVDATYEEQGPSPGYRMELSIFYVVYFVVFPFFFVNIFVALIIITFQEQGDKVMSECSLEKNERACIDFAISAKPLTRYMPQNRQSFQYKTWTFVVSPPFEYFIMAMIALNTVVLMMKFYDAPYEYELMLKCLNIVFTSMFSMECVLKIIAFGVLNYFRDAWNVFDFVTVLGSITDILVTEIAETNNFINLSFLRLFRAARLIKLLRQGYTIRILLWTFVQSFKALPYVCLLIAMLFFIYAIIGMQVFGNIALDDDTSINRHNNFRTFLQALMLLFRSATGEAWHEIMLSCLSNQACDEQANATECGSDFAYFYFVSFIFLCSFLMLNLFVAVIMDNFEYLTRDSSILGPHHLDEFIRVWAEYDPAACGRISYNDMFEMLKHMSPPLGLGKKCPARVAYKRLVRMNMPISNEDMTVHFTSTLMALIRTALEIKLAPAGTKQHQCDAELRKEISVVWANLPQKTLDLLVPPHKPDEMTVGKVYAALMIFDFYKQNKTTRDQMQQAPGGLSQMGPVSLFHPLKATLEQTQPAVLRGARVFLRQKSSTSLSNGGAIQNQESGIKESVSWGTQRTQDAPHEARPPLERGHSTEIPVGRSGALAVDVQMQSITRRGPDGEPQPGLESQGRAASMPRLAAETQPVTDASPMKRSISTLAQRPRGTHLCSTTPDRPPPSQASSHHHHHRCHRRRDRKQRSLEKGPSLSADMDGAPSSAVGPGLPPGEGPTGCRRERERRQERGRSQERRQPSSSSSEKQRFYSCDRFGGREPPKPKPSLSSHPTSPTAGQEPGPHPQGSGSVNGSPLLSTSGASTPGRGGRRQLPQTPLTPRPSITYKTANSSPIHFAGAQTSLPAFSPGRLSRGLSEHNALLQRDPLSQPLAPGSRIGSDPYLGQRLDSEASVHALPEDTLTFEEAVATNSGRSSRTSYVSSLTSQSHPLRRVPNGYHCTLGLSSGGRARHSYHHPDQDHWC
T3 sequence (Q02410 whole entry): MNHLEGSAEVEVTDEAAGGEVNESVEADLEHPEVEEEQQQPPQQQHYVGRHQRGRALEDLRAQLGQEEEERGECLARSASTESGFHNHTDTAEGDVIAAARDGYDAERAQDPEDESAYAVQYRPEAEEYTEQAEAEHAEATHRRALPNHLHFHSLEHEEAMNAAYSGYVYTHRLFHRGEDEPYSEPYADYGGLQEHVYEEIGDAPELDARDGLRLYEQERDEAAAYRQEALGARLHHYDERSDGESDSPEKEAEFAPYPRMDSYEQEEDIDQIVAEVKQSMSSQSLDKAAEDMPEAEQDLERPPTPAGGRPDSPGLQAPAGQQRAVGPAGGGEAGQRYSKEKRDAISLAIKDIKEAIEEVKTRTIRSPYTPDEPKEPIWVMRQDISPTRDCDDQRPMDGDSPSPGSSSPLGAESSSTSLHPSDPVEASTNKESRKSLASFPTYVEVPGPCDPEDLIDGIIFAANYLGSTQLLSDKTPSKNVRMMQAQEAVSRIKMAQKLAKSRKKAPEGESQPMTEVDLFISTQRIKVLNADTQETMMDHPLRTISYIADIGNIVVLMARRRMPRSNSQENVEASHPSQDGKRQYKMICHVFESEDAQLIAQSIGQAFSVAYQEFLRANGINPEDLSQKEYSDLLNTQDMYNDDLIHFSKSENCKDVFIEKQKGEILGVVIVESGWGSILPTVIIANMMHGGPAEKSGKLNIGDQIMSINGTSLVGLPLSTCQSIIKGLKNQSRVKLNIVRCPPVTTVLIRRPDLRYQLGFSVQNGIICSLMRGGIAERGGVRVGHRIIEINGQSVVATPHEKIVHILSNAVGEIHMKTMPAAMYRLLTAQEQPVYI

[8] = molecular target: T3, Voltage-gated N-type calcium channel alpha-1B subunit/Amyloid beta A4 precursor protein-binding family A member 1; test: disruptors of Mint-PDZ/N-type channel peptide interaction – biochemical, HTRF, SAR follow-up (AID 2489); assay type: functional
[9] = molecular target: T4, Histone-lysine N-methyltransferase NSD2 (Homo sapiens, UniProt O96028); assay type: biochemical
T4 sequence (O96028 whole entry): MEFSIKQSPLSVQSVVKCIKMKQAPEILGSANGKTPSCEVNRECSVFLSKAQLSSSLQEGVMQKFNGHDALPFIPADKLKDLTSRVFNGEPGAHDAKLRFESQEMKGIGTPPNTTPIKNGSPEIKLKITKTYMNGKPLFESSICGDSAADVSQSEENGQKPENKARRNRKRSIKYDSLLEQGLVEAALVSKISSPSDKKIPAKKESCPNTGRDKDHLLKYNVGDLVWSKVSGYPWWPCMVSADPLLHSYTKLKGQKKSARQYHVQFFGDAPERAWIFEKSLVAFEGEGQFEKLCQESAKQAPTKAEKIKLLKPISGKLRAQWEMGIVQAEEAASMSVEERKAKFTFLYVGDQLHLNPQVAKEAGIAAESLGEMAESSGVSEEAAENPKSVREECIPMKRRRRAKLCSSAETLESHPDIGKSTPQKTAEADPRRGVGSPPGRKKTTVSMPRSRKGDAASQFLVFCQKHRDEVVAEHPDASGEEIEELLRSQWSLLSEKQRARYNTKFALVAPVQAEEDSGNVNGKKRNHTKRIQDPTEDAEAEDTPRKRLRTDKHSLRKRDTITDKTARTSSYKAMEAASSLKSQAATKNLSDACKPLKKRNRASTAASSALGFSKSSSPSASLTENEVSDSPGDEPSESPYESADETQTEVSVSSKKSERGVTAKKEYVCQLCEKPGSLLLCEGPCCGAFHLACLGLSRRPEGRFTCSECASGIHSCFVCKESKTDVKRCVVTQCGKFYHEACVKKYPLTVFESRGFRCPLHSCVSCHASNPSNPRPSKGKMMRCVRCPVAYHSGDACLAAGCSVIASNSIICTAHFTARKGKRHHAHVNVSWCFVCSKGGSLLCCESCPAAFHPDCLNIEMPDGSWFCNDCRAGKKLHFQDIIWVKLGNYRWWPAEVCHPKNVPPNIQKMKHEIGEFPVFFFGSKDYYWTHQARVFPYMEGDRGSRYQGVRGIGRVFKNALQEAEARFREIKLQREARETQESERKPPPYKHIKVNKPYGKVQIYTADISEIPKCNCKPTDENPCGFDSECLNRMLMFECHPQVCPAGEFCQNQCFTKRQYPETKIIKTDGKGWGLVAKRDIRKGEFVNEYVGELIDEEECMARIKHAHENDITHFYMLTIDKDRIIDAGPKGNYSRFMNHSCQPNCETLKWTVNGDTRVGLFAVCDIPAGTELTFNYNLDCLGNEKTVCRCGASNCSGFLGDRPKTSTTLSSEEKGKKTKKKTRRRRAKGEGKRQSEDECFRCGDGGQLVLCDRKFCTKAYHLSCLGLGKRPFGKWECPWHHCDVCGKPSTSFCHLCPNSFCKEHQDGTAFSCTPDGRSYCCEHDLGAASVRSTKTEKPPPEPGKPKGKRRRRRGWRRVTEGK

[10] = fluconazole-exposed Candida albicans growth modulators – fluorescence, retest, confirmation (AID 2467); assay type: functional, cell-based
[11] = viability loss in THP-1 monocytes – THP-1 cells, cytotoxicity control for Vif-APOBEC3G degradation inhibitor project, dose response (AID 1117359); assay type: functional; conditions: THP-1
[12] = molecular target: T5, Protein Tat (Human immunodeficiency virus type 1 group M subtype B (isolate HXB2)(HIV-1), UniProt P04608); assay type: functional;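 also: tat binding to TAR RNA read out by fluorescence polarization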
T5 sequence (P04608 whole entry): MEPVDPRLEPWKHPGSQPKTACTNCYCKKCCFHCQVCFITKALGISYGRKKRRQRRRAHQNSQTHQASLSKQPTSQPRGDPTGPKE

[13] = HGIII-sPLA2 enzyme inhibition potency – biochemical, QFRET, IC50, dose response (AID 743457);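 also: green fluorescence rise as the enzyme cleaves BODIPY PC-A2 in liposomes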
[14] = NIH-3T3 fibroblast cytotoxicity, dose response, cytotoxicity control, cell-based, fluorescence, Alamar Blue, secondary assay (AID 2327); assay type: functional;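 also: NIH-3T3 mouse fibroblasts cultured with fluconazole at 8 µg/mL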
[15] = molecular target: T6, Bcl-2-like protein 10 (Homo sapiens, UniProt Q9HD36); test: Bcl-B/TR3 peptide binding disruption – biochemical, fluorescence polarization, FITC-TR3 peptide, selectivity assay for Bfl-1 inhibitor project, primary screen (AID 748);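 also: fluorescence polarization from a fluorescein-labelled TR3 peptide binding purified Bcl-B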
T6 sequence (Q9HD36 whole entry): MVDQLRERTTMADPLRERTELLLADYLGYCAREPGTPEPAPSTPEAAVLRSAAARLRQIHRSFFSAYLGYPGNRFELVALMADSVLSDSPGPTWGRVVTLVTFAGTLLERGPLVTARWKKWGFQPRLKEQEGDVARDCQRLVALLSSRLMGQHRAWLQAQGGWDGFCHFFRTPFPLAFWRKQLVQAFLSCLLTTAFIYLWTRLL

In the case of `O=c1c2c([N+](=O)[O-])cc([N+](=O)[O-])cc2sn1-c1ccc(Br)cc1`, the IC50 [1] is reported as 12.2 µM (active), the IC50 [2] is reported as 0.0725 µM (active) and the IC50 [3] is reported as 8.14 µM (active). The IC50 [4] was 10.8 µM (active).
In the case of `O=C(C1CCCCN1Cc1cccc(Cl)c1Cl)N1CCN(c2ccc([N+](=O)[O-])cc2)CC1` (stereo not given), the IC50 [5] is reported as 3.3 µM (active) and the IC50 [6] is reported as 4.4 µM (active).
In the case of `O=C(NC1CCC(c2ccccc2)CC1)c1cc(-c2ccco2)nc2ccccc12` (stereo not given), the IC50 [7] is reported as 25.5 µM (active) and the IC50 [8] is reported as 5.59 µM (active).
In the case of `N#C/C(C(N)=O)=c1/ccc2c(c1)N1C3=C(CCCC3)CC3CCCCC31N=2` (stereo not given), the AC50 [9] is reported as 10.2 µM (active), the EC50 [10] is reported as 4.01 µM (active) and the CC50 [11] is reported as 33.5 µM (active). For the same compound, the IC50 [12] was > 100 µM (inconclusive), the IC50 [13] was 72.7 µM (inactive) and the EC50 [14] was 8.74 µM (inconclusive). The IC50 [15] was > 50 µM (inactive).
